The values below come from patent US20150342968A1, “STABLE PHARMACEUTICAL COMPOSITION FOR TREATING OSTEOPOROSIS” (LANDSTEINER SCIENTIFIC S.A. DE C.V., priority 2012, published 2015).

For orientation: Tmax means the time at which the peak concentration occurs.

Several values for one entry are separate records, joined by “and”; a condition that tells them apart may be missing. Equal values may be shown once.

For data set [1] the following is noted: cited from earlier work.
The nature of data set [2]: Dissolution buffer stage pH 6.8 of tablets of composition in Table 1. The data set is classed as physicochemical. Here is the method: (§1) Two stability tests of vitamin D3 and risedronate sodium were performed at different conditions by subjecting the tablets that were prepared according to the composition in Table 1. The conditions were as follows:
It is evident that the risedronate sodium dissolves quickly in a medium with pH 6.8, obtaining more than 100% in the first 10 minutes.

The conditions of data set [3]: cited from earlier work. This is another data set of the same source.
Data set [4] is described as follows: Evaluation of the stability of risedronate sodium in tablets of composition in Table 1. The data set is classed as physicochemical. On the procedure:
as §1
(§2) Two batches of the composition were subjected to different conditions to evaluate the stability of vitamin D3 and risedronate sodium. The conditions were the following: 30° C./65% RH, 40° C./75% RH and Cycled 40° C./75% RH-Cooling (2°-8° C.). The samples were submitted for 4 weeks and the following results were obtained.
Evaluation of the Stability of Risedronate Sodium

Data set [5] is described as follows: Dissolution acid stage (gastro-resistance) of tablets of composition in Table 1. The data set is classed as physicochemical. On the procedure:
as §1
The product complies with the gastro-resistant stage, because it has an enteric coating to protect the mucous membranes while it passes through the gastrointestinal system.

Data set [6] can be described thus: Evaluation of the stability of vitamin D3 in tablets of composition in Table 1. The data set is classed as physicochemical. Here is the method:
as §1
Evaluation Of The Stability Of Vitamin D3
as §2

In the case of `O=P(O)(O)C(O)(Cc1cccnc1)P(=O)(O)O` [Risedronate sodium, risedronate sodium], the “injected dose recovered in the urine” value in data set [1] (after 28 days) is given as 85%. The time to peak (Tmax) in data set [1] (after an oral dose) is roughly 1 h. The “part of the absorbed dose excreted in the urine” value in data set [1] (first 24 hours) was “One half”. In addition, the “mean volume of distribution at steady state equilibrium” value in data set [1] (humans) was 6.3 L/kg. The “Dissolution buffer stage, dissolved” value is reported as 94.08% in data set [2] (pH 6.8, 5 min); “more than 100%” in data set [2] (pH 6.8, 10 min); 100.93% in data set [2] (pH 6.8, 10 min, listed as Risedronate Sodium 35 mg); 100.84% in data set [2] (pH 6.8, 15 min); 100.94% in data set [2] (pH 6.8, 20 min); 100.12% in data set [2] (pH 6.8, 30 min). The “Dissolution buffer stage, dissolved” value in data set [2] (pH 6.8, 45 min) is on record as 100.48%. The plasmatic protein binding in data set [3] is recorded as 24%. For the same compound, the “Risedronate sodium stability, Final” value in data set [4] (Test 1, final (4 weeks)) is 100.66%; in data set [4] (Test 2, final (4 weeks)), 96.75%. Moreover, the “Risedronate sodium stability, Initial” value in data set [4] (Test 1, initial) was determined as 102.55%; in data set [4] (Test 2, initial) it was 100.99%. In data set [5] (individual samples S1-S6, specification no more than 10.0%), the “Risedronate sodium Acid Stage % Dissolved” value was 0.97% and 0.56% and 0.80% and 0.95% and 1.19% and 0.71%. Besides, the “Risedronate sodium Acid Stage % Dissolved, Maximum” value in data set [5] (maximum of S1-S6) turned out to be 1.19%. Also, the “Risedronate sodium Acid Stage % Dissolved, Mean” value in data set [5] (mean of S1-S6) came to 0.86%. Besides, the “Risedronate sodium Acid Stage % Dissolved, Minimum” value in data set [5] (minimum of S1-S6) is 0.56%.

`C=C1CC[C@H](O)C/C1=C/C=C1\CCC[C@]2(C)[C@@H]([C@H](C)CCCC(C)C)CC[C@@H]12` [Vitamin D3, cholecalciferol]: the “Vitamin D3 rating (stability)” value in data set [6] (Test 1, week 0, 30° C./65% RH) is reported as 100.00%; in data set [6] (Test 1, week 0, 40° C./75% RH), 100.00%; in data set [6] (Test 1, week 0, Cycled 40° C./75% RH-cooling), 100.00%; in data set [6] (Test 1, week 1, 30° C./65% RH), 102.02%; in data set [6] (Test 1, week 1, 40° C./75% RH) it was 98.34%; in data set [6] (Test 1, week 1, Cycled 40° C./75% RH-cooling), 98.69%. Moreover, the “Vitamin D3 rating (stability)” value in data set [6] (Test 1, week 2, 30° C./65% RH) is recorded as 99.20%; in data set [6] (Test 1, week 2, 40° C./75% RH), 98.12%; in data set [6] (Test 1, week 2, Cycled 40° C./75% RH-cooling) it was 97.90%; in data set [6] (Test 1, week 4, 30° C./65% RH) it was 96.39%; in data set [6] (Test 1, week 4, 40° C./75% RH), 96.03%; in data set [6] (Test 1, week 4, Cycled 40° C./75% RH-cooling), 96.09%. The “Vitamin D3 rating (stability)” value in data set [6] (Test 2, week 0, 30° C./65% RH) is on record as 100.00%; in data set [6] (Test 2, week 0, 40° C./75% RH) it was 100.00%; in data set [6] (Test 2, week 0, Cycled 40° C./75% RH-cooling) it was 100.00%; in data set [6] (Test 2, week 1, 30° C./65% RH) it was 97.34%; in data set [6] (Test 2, week 1, 40° C./75% RH) it was 99.62%; in data set [6] (Test 2, week 1, Cycled 40° C./75% RH-cooling), 95.55%. For the same compound, the “Vitamin D3 rating (stability)” value in data set [6] (Test 2, week 2, 30° C./65% RH) was 96.93%; in data set [6] (Test 2, week 2, 40° C./75% RH), 97.80%; in data set [6] (Test 2, week 2, Cycled 40° C./75% RH-cooling), 96.31%; in data set [6] (Test 2, week 4, 30° C./65% RH) it was 94.79%; in data set [6] (Test 2, week 4, 40° C./75% RH), 96.32%; in data set [6] (Test 2, week 4, Cycled 40° C./75% RH-cooling) it was 94.79%. Further, in data set [6] (over the four weeks under the different conditions), the “decrease in the vitamin D3 rating” value stood at 5.96%.
